According to patent US20260184693A1, “INHIBITORS OF SOLUTE CARRIER FAMILY 6A MEMBER 19 (SLC6A19) AND METHODS OF USE THEREOF” (Maze Therapeutics, Inc., priority 2022, published 2026):
pIC50: −log10 of the molar value.

Target: T1, human SLC6A19 (Homo sapiens, UniProt Q695T7)
T1 construct: expressed in transfected cells
T1 sequence (Q695T7 1-634): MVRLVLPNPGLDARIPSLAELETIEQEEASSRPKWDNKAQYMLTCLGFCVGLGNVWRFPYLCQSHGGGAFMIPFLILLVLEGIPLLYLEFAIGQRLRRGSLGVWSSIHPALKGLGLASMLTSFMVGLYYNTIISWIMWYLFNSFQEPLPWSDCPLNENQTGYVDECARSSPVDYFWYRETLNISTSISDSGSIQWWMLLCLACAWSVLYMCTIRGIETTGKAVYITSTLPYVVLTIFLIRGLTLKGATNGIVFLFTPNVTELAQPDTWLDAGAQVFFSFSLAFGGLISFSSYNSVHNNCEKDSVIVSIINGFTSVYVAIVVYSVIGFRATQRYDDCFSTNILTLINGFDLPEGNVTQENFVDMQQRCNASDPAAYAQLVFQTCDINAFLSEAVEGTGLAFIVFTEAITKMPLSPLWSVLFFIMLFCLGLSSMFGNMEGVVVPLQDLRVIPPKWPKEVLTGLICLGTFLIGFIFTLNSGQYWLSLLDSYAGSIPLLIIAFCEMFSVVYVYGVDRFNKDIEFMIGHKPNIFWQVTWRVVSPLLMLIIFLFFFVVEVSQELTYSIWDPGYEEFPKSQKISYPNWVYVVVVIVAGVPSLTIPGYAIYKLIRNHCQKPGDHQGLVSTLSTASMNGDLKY
T1 sequence (Q9HBJ8 15-222 partner): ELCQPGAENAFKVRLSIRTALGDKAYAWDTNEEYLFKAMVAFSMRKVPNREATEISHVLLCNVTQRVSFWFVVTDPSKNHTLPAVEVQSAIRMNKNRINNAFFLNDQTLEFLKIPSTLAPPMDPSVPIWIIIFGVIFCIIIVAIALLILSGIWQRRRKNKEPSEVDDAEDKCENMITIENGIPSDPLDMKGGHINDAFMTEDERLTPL
Assay: Example B2: 13C6,15N-isoleucine uptake, RapidFire mass spectrometry, in CHO cells with doxycycline-inducible expression of human SLC6A19 and TMEM27
Type: cell-based
Conditions: read-out: SLC6A19_RapidFire Uptake Assay IC50
Method in brief: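 Labelled isoleucine (13C6,15N; 2 mM added) was given 20 min at 37 °C, following a 20-min compound pre-treatment (10-point 2-fold series, duplicate). Cells were doxycycline-induced CHO co-expressing human SLC6A19 and TMEM27. Intracellular label was quantified by RapidFire-MS peak areas against a 13C-leucine standard.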

SMILES | pIC50
CN(C(=O)NCc1cc2cc(Cl)ccc2[nH]1)[C@@H]1CCCN(C(=O)c2ccn3ccnc3c2)C1 [Compound 76, (R)-3-((5-chloro-1H-indol-2-yl)methyl)-1-(1-(imidazo[1,2-a]pyridine-7-carbonyl)piperidin-3-yl)-1-methylurea] | 6.00
Cc1cc(C(=O)N2CCC[C@@H](N(C)C(=O)NCc3cc4cc(Cl)ccc4[nH]3)C2)n(C)n1 [Compound 77, (R)-3-((5-chloro-1H-indol-2-yl)methyl)-1-(1-(1,3-dimethyl-1H-pyrazole-5-carbonyl)piperidin-3-yl)-1-methylurea] | 5.18
COc1ccc(C(=O)N2CCC[C@@H](N(C)C(=O)NCc3cc4cc(Cl)ccc4[nH]3)C2)nc1 [Compound 78, (R)-3-((5-chloro-1H-indol-2-yl)methyl)-1-(1-(5-methoxypicolinoyl)piperidin-3-yl)-1-methylurea] | 5.75
COC(C)(C)C(=O)N1CCC[C@@H](N(C)C(=O)NCc2cc3cc(Cl)ccc3[nH]2)C1 [Compound 79, (R)-3-((5-chloro-1H-indol-2-yl)methyl)-1-(1-(2-methoxy-2-methylpropanoyl)piperidin-3-yl)-1-methylurea] | 5.25
CN(C(=O)NCc1cc2cc(Cl)ccc2[nH]1)[C@@H]1CCCN(C(=O)CC(C)(C)O)C1 [Compound 80, (R)-3-((5-chloro-1H-indol-2-yl)methyl)-1-(1-(3-hydroxy-3-methylbutanoyl)piperidin-3-yl)-1-methylurea] | 5.25
CN(C(=O)NCc1cc2cc(Cl)ccc2[nH]1)[C@@H]1CCCN(C(=O)Cn2ccccc2=O)C1 [Compound 81, (R)-3-((5-chloro-1H-indol-2-yl)methyl)-1-methyl-1-(1-(2-(2-oxopyridin-1(2H)-yl)acetyl)piperidin-3-yl)urea] | 5.85
COCC(C)C(=O)N1CCC[C@@H](N(C)C(=O)NCc2cc3cc(Cl)ccc3[nH]2)C1 (stereo partly drawn) [Compound 82, 3-((5-chloro-1H-indol-2-yl)methyl)-1-((3R)-1-(3-methoxy-2-methylpropanoyl)piperidin-3-yl)-1-methylurea] | 5.42
CN(C(=O)NCc1cc2cc(Cl)ccc2[nH]1)[C@@H]1CCCN(C(=O)COc2ccc(=O)[nH]n2)C1 [Compound 83, (R)-3-((5-chloro-1H-indol-2-yl)methyl)-1-methyl-1-(1-(2-((6-oxo-1,6-dihydropyridazin-3-yl)oxy)acetyl)piperidin-3-yl)urea] | 5.32
CN(C(=O)NCc1cc2cc(Cl)ccc2[nH]1)[C@@H]1CCCN(C(=O)C2CCCC2)C1 [Compound 84, (R)-3-((5-chloro-1H-indol-2-yl)methyl)-1-(1-(cyclopentanecarbonyl)piperidin-3-yl)-1-methylurea] | 6.75
Cc1ccn(CC(=O)N2CCC[C@@H](N(C)C(=O)NCc3cc4cc(Cl)ccc4[nH]3)C2)n1 [Compound 85, (R)-3-((5-chloro-1H-indol-2-yl)methyl)-1-methyl-1-(1-(2-(3-methyl-1H-pyrazol-1-yl)acetyl)piperidin-3-yl)urea] | 6.43
CN(C(=O)NCc1cc2cc(Cl)ccc2[nH]1)[C@@H]1CCCN(C(=O)Cc2cnn(C)c2)C1 [Compound 86, (R)-3-((5-chloro-1H-indol-2-yl)methyl)-1-methyl-1-(1-(2-(1-methyl-1H-pyrazol-4-yl)acetyl)piperidin-3-yl)urea] | 6.25
COc1ncc(C(=O)N2CCC[C@@H](N(C)C(=O)NCc3cc4cc(Cl)ccc4[nH]3)C2)cc1F [Compound 87, (R)-3-((5-chloro-1H-indol-2-yl)methyl)-1-(1-(5-fluoro-6-methoxynicotinoyl)piperidin-3-yl)-1-methylurea] | 5.78
CC(=O)NC(C)C(=O)N1CCC[C@@H](N(C)C(=O)NCc2cc3cc(Cl)ccc3[nH]2)C1 (stereo partly drawn) [Compound 88, N-(1-((R)-3-(3-((5-chloro-1H-indol-2-yl)methyl)-1-methylureido)piperidin-1-yl)-1-oxopropan-2-yl)acetamide] | 5.39
CC(=O)NCCC(=O)N1CCC[C@@H](N(C)C(=O)NCc2cc3cc(Cl)ccc3[nH]2)C1 [Compound 89, (R)-N-(3-(3-(3-((5-chloro-1H-indol-2-yl)methyl)-1-methylureido)piperidin-1-yl)-3-oxopropyl)acetamide] | 5.97
COCc1oncc1C(=O)N1CCC[C@@H](N(C)C(=O)NCc2cc3cc(Cl)ccc3[nH]2)C1 [Compound 90, (R)-3-((5-chloro-1H-indol-2-yl)methyl)-1-(1-(5-(methoxymethyl)isoxazole-4-carbonyl)piperidin-3-yl)-1-methylurea] | 4.87
CN(C(=O)NCc1cc2cc(Cl)ccc2[nH]1)[C@@H]1CCCN(C(=O)CCn2cccn2)C1 [Compound 91, (R)-1-(1-(3-(1H-pyrazol-1-yl)propanoyl)piperidin-3-yl)-3-((5-chloro-1H-indol-2-yl)methyl)-1-methylurea] | 5.74
COCC1(C(=O)N2CCC[C@@H](N(C)C(=O)NCc3cc4cc(Cl)ccc4[nH]3)C2)CC1 [Compound 92, (R)-3-((5-chloro-1H-indol-2-yl)methyl)-1-(1-(1-(methoxymethyl)cyclopropane-1-carbonyl)piperidin-3-yl)-1-methylurea] | 5.05
CN(C(=O)NCc1cc2cc(Cl)ccc2[nH]1)[C@@H]1CCCN(C(=O)C2CCCCO2)C1 (stereo partly drawn) [Compound 93, 3-((5-chloro-1H-indol-2-yl)methyl)-1-methyl-1-((3R)-1-(tetrahydro-2H-pyran-2-carbonyl)piperidin-3-yl)urea] | 5.79
CN(C(=O)NCc1cc2cc(Cl)ccc2[nH]1)[C@@H]1CCCN(C(=O)CN2CCCC2=O)C1 [Compound 94, (R)-3-((5-chloro-1H-indol-2-yl)methyl)-1-methyl-1-(1-(2-(2-oxopyrrolidin-1-yl)acetyl)piperidin-3-yl)urea] | 5.56
CN(C(=O)NCc1cc2cc(Cl)ccc2[nH]1)[C@@H]1CCCN(C(=O)C2CCOCC2)C1 [Compound 95, (R)-3-((5-chloro-1H-indol-2-yl)methyl)-1-methyl-1-(1-(tetrahydro-2H-pyran-4-carbonyl)piperidin-3-yl)urea] | 5.49
CC(=O)N1CC(C(=O)N2CCC[C@@H](N(C)C(=O)NCc3cc4cc(Cl)ccc4[nH]3)C2)C1 [Compound 96, (R)-1-(1-(1-acetylazetidine-3-carbonyl)piperidin-3-yl)-3-((5-chloro-1H-indol-2-yl)methyl)-1-methylurea] | 6.03
CN(C(=O)NCc1cc2cc(Cl)ccc2[nH]1)[C@@H]1CCCN(C(=O)C2(O)CCCC2)C1 [Compound 97, (R)-3-((5-chloro-1H-indol-2-yl)methyl)-1-(1-(1-hydroxycyclopentane-1-carbonyl)piperidin-3-yl)-1-methylurea] | 5.87
CN(C(=O)NCc1cc2cc(Cl)ccc2[nH]1)[C@@H]1CCCN(C(=O)CC2(O)CCC2)C1 [Compound 98, (R)-3-((5-chloro-1H-indol-2-yl)methyl)-1-(1-(2-(1-hydroxycyclobutyl)acetyl)piperidin-3-yl)-1-methylurea] | 5.52
CN(C(=O)NCc1cc2cc(Cl)ccc2[nH]1)[C@@H]1CCCN(C(=O)C2CC(C)(O)C2)C1 (stereo partly drawn) [Compound 99, (R)-3-((5-chloro-1H-indol-2-yl)methyl)-1-(1-(3-hydroxy-3-methylcyclobutane-1-carbonyl)piperidin-3-yl)-1-methylurea] | 6.13
CN(C(=O)NCc1cc2cc(Cl)ccc2[nH]1)[C@@H]1CCCN(C(=O)c2cccc3c2OCC3)C1 [Compound 100, (R)-3-((5-chloro-1H-indol-2-yl)methyl)-1-(1-(2,3-dihydrobenzofuran-7-carbonyl)piperidin-3-yl)-1-methylurea] | 6.42
CN(C)C(=O)NCC(=O)N1CCC[C@@H](N(C)C(=O)NCc2cc3cc(Cl)ccc3[nH]2)C1 [Compound 101, (R)-3-((5-chloro-1H-indol-2-yl)methyl)-1-(1-((dimethylcarbamoyl)glycyl)piperidin-3-yl)-1-methylurea] | 5.53
Cc1cnc2ncc(C(=O)N3CCC[C@@H](N(C)C(=O)NCc4cc5cc(Cl)ccc5[nH]4)C3)n2c1 [Compound 102, (R)-3-((5-chloro-1H-indol-2-yl)methyl)-1-methyl-1-(1-(6-methylimidazo[1,2-a]pyrimidine-3-carbonyl)piperidin-3-yl)urea] | 5.74
CN(C(=O)NCc1cc2cc(Cl)ccc2[nH]1)[C@@H]1CCCN(C(=O)C2CN(S(C)(=O)=O)C2)C1 [Compound 103, (R)-3-((5-chloro-1H-indol-2-yl)methyl)-1-methyl-1-(1-(1-(methylsulfonyl)azetidine-3-carbonyl)piperidin-3-yl)urea] | 5.65
CCC(NC(C)=O)C(=O)N1CCC[C@@H](N(C)C(=O)NCc2cc3cc(Cl)ccc3[nH]2)C1 (stereo partly drawn) [Compound 104, N-(1-((R)-3-(3-((5-chloro-1H-indol-2-yl)methyl)-1-methylureido)piperidin-1-yl)-1-oxobutan-2-yl)acetamide] | 5.17
